pIC50: −log10 of the molar value.

The subject of this assay is PC3 cells. In words: NAMPT Cell Proliferation Assay. Type of assay: cell-based. Conditions: Homo sapiens, PC-3, 120 h, 5 days incubation, cell viability by Cell Titer Glo. A digest of the protocol:
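Five-day CellTiter-Glo viability readout in PC3 cells grown in RPMI/10% heat-inactivated FBS. Compounds added after overnight attachment as a 10-fold dilution series, […]. Percent inhibition fitted to sigmoidal dose-response to derive IC50.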
On the technique in general: ATP-based viability assays read luminescence as a measure of living cells.
As usually defined, the pIC50 is −log10 of the IC50, conventionally taken in molar units. The low end stands for a large IC50, the high end for a small IC50. `COc1ccc(C(=O)N2CCC(S(=O)(=O)c3ccc(NC(=O)C4CN(c5cccnn5)C4)cc3)CC2)cc1` [Example 566, N-(4-{[1-(4-methoxybenzoyl)piperidin-4-yl]sulfonyl}phenyl)-1-(pyridazin-3-yl)azetidine-3-carboxamide] showed a pIC50 of 7.09.
As for `Cc1c(F)cccc1C(=O)N1CCC(c2ccc(NC(=O)C3CN(c4cccnn4)C3)cc2)CC1` [Example 387, N-{4-[1-(3-fluoro-2-methylbenzoyl)piperidin-4-yl]phenyl}-1-(pyridazin-3-yl)azetidine-3-carboxamide], the pIC50 is 8.66.
With `CC(=O)N1CCC(Oc2ccc(NC(=O)C3CN(c4cccnc4)C3)cc2)CC1` [Example 56, N-{4-[(1-acetylpiperidin-4-yl)oxy]phenyl}-1-(pyridin-3-yl)azetidine-3-carboxamide] the figure was 8.03.
With `O=C(Nc1ccc(OC2CCN(C(=O)c3ccccn3)CC2)cc1)C1CN(c2cccnn2)C1` [Example 242, 1-(pyridazin-3-yl)-N-(4-{[1-(pyridin-2-ylcarbonyl)piperidin-4-yl]oxy}phenyl)azetidine-3-carboxamide], the pIC50 is 8.04.
`O=C(Nc1ccc(S(=O)(=O)C2CCN(C(=O)c3ccc(F)cc3F)CC2)cc1)C1CN(c2cccnn2)C1` [Example 586, N-(4-{[1-(2,4-difluorobenzoyl)piperidin-4-yl]sulfonyl}phenyl)-1-(pyridazin-3-yl)azetidine-3-carboxamide] had a pIC50 of 6.97.
With `O=C(Nc1ccc(C2CCN(C(=O)Cc3ccc4ccccc4c3)CC2)cc1)[C@H]1CCN(c2cccnn2)C1` [Example 646, (3S)-N-{4-[1-(naphthalen-2-ylacetyl)piperidin-4-yl]phenyl}-1-(pyridazin-3-yl)pyrrolidine-3-carboxamide] the figure was 7.23; with `O=C(Nc1ccc(OC2CCN(C(=O)Cc3cccc(C(F)(F)F)c3)CC2)cc1)C1CN(c2ccnnc2)C1` [Example 305, 1-(pyridazin-4-yl)-N-{4-[(1-{[3-(trifluoromethyl)phenyl]acetyl}piperidin-4-yl)oxy]phenyl}azetidine-3-carboxamide], 6.99.
Consider `O=C(NC1CN(c2cccnn2)C1)c1ccc(C2CCN(C(=O)c3ccccc3)CC2)s1` [Example 810, 5-(1-benzoylpiperidin-4-yl)-N-[1-(pyridazin-3-yl)azetidin-3-yl]thiophene-2-carboxamide], for which the pIC50 is 7.21.
With `CC(C)C(=O)N1C2CCC1CC(c1ccc(NC(=O)C3CN(c4cccnn4)C3)cc1)C2` (stereo not drawn) [Example 840, N-{4-[8-(2-methylpropanoyl)-8-azabicyclo[3.2.1]oct-3-yl]phenyl}-1-(pyridazin-3-yl)azetidine-3-carboxamide] the figure was 8.55.
In turn, `O=C(Nc1ccc(C2CCN(C(=O)c3ccccc3)CC2)cc1)C1CN(c2cncc(F)c2)C1` [Example 666, N-[4-(1-benzoylpiperidin-4-yl)phenyl]-1-(5-fluoropyridin-3-yl)azetidine-3-carboxamide] gave a pIC50 of 8.09.
With `CCCCC(=O)N1CC(Oc2ccc(NC(=O)C3CN(c4ccnnc4)C3)cc2)C1` [Example 210, N-{4-[(1-pentanoylazetidin-3-yl)oxy]phenyl}-1-(pyridazin-4-yl)azetidine-3-carboxamide] the figure was 7.20; with `CSCCC(=O)N1CCC(c2ccc(NC(=O)[C@H]3CCN(c4cccnn4)C3)cc2)CC1` [Example 715, (3S)-N-(4-{1-[3-(methylsulfanyl)propanoyl]piperidin-4-yl}phenyl)-1-(pyridazin-3-yl)pyrrolidine-3-carboxamide], 7.93.
With `O=C(Nc1ccc(OC2CCN(C(=O)CC3CCCC3)CC2)cc1)C1CN(c2cccnc2)C1` [Example 69, N-(4-{[1-(cyclopentylacetyl)piperidin-4-yl]oxy}phenyl)-1-(pyridin-3-yl)azetidine-3-carboxamide] the figure was 8.37; with `O=C(Nc1ccc(C2CCN(C(=O)Cc3ccccc3F)CC2)cc1)C1CN(c2cccnn2)C1` [Example 366, N-(4-{1-[(2-fluorophenyl)acetyl]piperidin-4-yl}phenyl)-1-(pyridazin-3-yl)azetidine-3-carboxamide], 8.18.
The molecule `O=C(N[C@H]1CCN(c2cccnn2)C1)c1ccc(C2CCN(C(=O)C3CCOC3)CC2)s1` (stereo partly drawn) [Example 765, N-[(3S)-1-(pyridazin-3-yl)pyrrolidin-3-yl]-5-[1-(tetrahydrofuran-3-ylcarbonyl)piperidin-4-yl]thiophene-2-carboxamide] gave a negative logarithm of the IC50 (pIC50) of 5.99.
In turn, `O=C(Nc1ccc(C2CCN(C(=O)c3cccc(C(F)(F)F)c3)CC2)cc1)C1CN(c2ccnnc2)C1` [Example 535, 1-(pyridazin-4-yl)-N-(4-{1-[3-(trifluoromethyl)benzoyl]piperidin-4-yl}phenyl)azetidine-3-carboxamide] had a pIC50 of 8.03.
Molecule `O=C(Nc1ccc(C2CCN(C(=O)C3(c4ccccc4)CC3)CC2)cc1)[C@H]1CCN(c2cccnn2)C1` [Example 702, (3S)-N-(4-{1-[(1-phenylcyclopropyl)carbonyl]piperidin-4-yl}phenyl)-1-(pyridazin-3-yl)pyrrolidine-3-carboxamide] had a negative logarithm of the IC50 (pIC50) of 8.68.
With `O=C(Nc1ccc(OC2CCN(C(=O)Cc3cccc(C(F)(F)F)c3)CC2)cc1)C1CN(c2cccnn2)C1` [Example 240, 1-(pyridazin-3-yl)-N-{4-[(1-{[3-(trifluoromethyl)phenyl]acetyl}piperidin-4-yl)oxy]phenyl}azetidine-3-carboxamide] the figure was 7.99; with `Cc1ccsc1C(=O)N1CCC(c2ccc(NC(=O)C3CN(c4cccnc4)C3)cc2)CC1` [Example 111, N-(4-{1-[(3-methylthiophen-2-yl)carbonyl]piperidin-4-yl}phenyl)-1-(pyridin-3-yl)azetidine-3-carboxamide], 9.19; with `CC(C)(C)CC(=O)N1CCC(c2ccc(NC(=O)[C@H]3CCN(c4cccnn4)C3)cc2)CC1` [Example 723, (3S)-N-{4-[1-(3,3-dimethylbutanoyl)piperidin-4-yl]phenyl}-1-(pyridazin-3-yl)pyrrolidine-3-carboxamide], 8.46.
With `O=C(Nc1ccc(OC2CCN(C(=O)C3CCOCC3)CC2)cc1)C1CN(c2cccnn2)C1` [Example 214, 1-(pyridazin-3-yl)-N-(4-{[1-(tetrahydro-2H-pyran-4-ylcarbonyl)piperidin-4-yl]oxy}phenyl)azetidine-3-carboxamide] the figure was 8.04; with `O=C(Nc1ccc(C2CCN(C(=O)Cc3ccc4ccccc4c3)CC2)cc1)C1CN(c2cccnn2)C1` [Example 421, N-{4-[1-(naphthalen-2-ylacetyl)piperidin-4-yl]phenyl}-1-(pyridazin-3-yl)azetidine-3-carboxamide], 8.43.
`O=C(Nc1ccc(C2CCN(C(=O)CCS(=O)(=O)c3ccccc3)CC2)cc1)[C@H]1CCN(c2cccnn2)C1` [Example 647, (3S)-N-(4-{1-[3-(phenylsulfonyl)propanoyl]piperidin-4-yl}phenyl)-1-(pyridazin-3-yl)pyrrolidine-3-carboxamide] showed a pIC50 of 8.24.
With `O=C(Nc1ccc(OC2CCN(C(=O)C3CCCO3)CC2)cc1)C1CN(c2cccnn2)C1` (stereo not drawn) [Example 221, 1-(pyridazin-3-yl)-N-(4-{[1-(tetrahydrofuran-2-ylcarbonyl)piperidin-4-yl]oxy}phenyl)azetidine-3-carboxamide] the figure was 8.05; with `CC1(C(=O)N2CCC(c3ccc(NC(=O)[C@H]4CCN(c5cccnn5)C4)cc3)CC2)CCCCC1` [Example 654, (3S)-N-(4-{1-[(1-methylcyclohexyl)carbonyl]piperidin-4-yl}phenyl)-1-(pyridazin-3-yl)pyrrolidine-3-carboxamide], 8.56.
For `O=C(Nc1ccc(O[C@@H]2CCN(C(=O)Cc3cccc(C(F)(F)F)c3)C2)cc1)C1CN(c2cccnn2)C1` [Example 512, 1-(pyridazin-3-yl)-N-(4-{[(3R)-1-{[3-(trifluoromethyl)phenyl]acetyl}pyrrolidin-3-yl]oxy}phenyl)azetidine-3-carboxamide], the negative logarithm of the IC50 (pIC50) was 7.81.
With `O=C(Nc1ccc(O[C@@H]2CCN(C(=O)CC3CC3)C2)cc1)C1CN(c2cccnn2)C1` [Example 485, N-(4-{[(3R)-1-(cyclopropylacetyl)pyrrolidin-3-yl]oxy}phenyl)-1-(pyridazin-3-yl)azetidine-3-carboxamide] the figure was 8.20.
Molecule `CC(C)Cn1cc(-c2ccc(C(=O)N[C@@H]3CCN(c4cnnc(Cl)c4Cl)C3)s2)cn1` [Example 618, N-[(3R)-1-(5,6-dichloropyridazin-4-yl)pyrrolidin-3-yl]-5-[1-(2-methylpropyl)-1H-pyrazol-4-yl]thiophene-2-carboxamide] had a negative-log IC50 (pIC50) of under 5.00.
`O=C(Nc1ccc(OC2CCN(C(=O)c3cc(F)cc(F)c3)CC2)cc1)C1CN(c2cccnn2)C1` [Example 243, N-(4-{[1-(3,5-difluorobenzoyl)piperidin-4-yl]oxy}phenyl)-1-(pyridazin-3-yl)azetidine-3-carboxamide] showed a pIC50 of 8.03.
Regarding `O=C(Nc1ccc(O[C@@H]2CCN(C(=O)c3ccc(F)cc3F)C2)cc1)C1CN(c2ccnnc2)C1` [Example 467, N-(4-{[(3R)-1-(2,4-difluorobenzoyl)pyrrolidin-3-yl]oxy}phenyl)-1-(pyridazin-4-yl)azetidine-3-carboxamide], the pIC50 is 7.81.
With `CC(C)(C)Cn1cnc(-c2ccc(NC(=O)C3CN(c4cccnn4)C3)cc2)c1` [Example 804, N-{4-[1-(2,2-dimethylpropyl)-1H-imidazol-4-yl]phenyl}-1-(pyridazin-3-yl)azetidine-3-carboxamide] the figure was 8.10.
Molecule `COc1ccccc1C(=O)N1CCC(c2ccc(NC(=O)[C@H]3CCN(c4cccnn4)C3)cc2)CC1` [Example 727, (3S)-N-{4-[1-(2-methoxybenzoyl)piperidin-4-yl]phenyl}-1-(pyridazin-3-yl)pyrrolidine-3-carboxamide] had a pIC50 of 8.34.
With `O=C(Nc1ccc(O[C@@H]2CCN(C(=O)C(F)(F)c3ccccc3)C2)cc1)C1CN(c2cccnn2)C1` [Example 522, N-[4-({(3R)-1-[difluoro(phenyl)acetyl]pyrrolidin-3-yl}oxy)phenyl]-1-(pyridazin-3-yl)azetidine-3-carboxamide], the negative logarithm of the IC50 (pIC50) is 9.11.

The values are drawn from patent publication US20130303509A1, “NAMPT INHIBITORS” (AbbVie Inc., priority 2012, published 2013).
